# What was measured:
# Assay type in all cases: binding
# Cleaved human CBG-WT [1] = assay: Isothermal titration calorimetry, steroid titrated to neutrophil elastase-cleaved human CBG-WT; conditions: human CBG, uncleaved vs neutrophil elastase-cleaved, ITC 25°C
# Method: (§1) Cleavage of the RCL in human and rat CBG mutants was accomplished with 100 mU human neutrophil elastase (Sigma-Aldrich) per mg purified CBG at 30°C and monitored by SDS-PAGE. The cleavage reaction was stopped with AEBSF. The protein samples were dialyzed against ITC buffer (20 mM potassium phosphate, 50 mM NaCl, pH 7.4) and titrated with steroids in a VP-ITC microcalorimeter (Microcal, Piscataway). All solutions were filtered (0.2 µm filter pore size) and degassed for 30 min prior to the titration experiments. The sample cell was filled with protein solution containing 15 µM rat CBG or 20 µM human CBG and titrated with steroid solutions containing 150 µM and 200 µM ligand, respectively. The titrations consisted of an initial injection of 2 µL followed by 25 consecutive injections of 10 µL ligand solution at 25°C. A spacing of 240 sec between the injections was used to allow a return to the baseline. Data points from the initial injection, which are generally affected by diffusion during the initial equilibration period after experiment setup, were discarded prior to data analysis. […] The binding curve was generated by plotting the heats of injections against the ratio of ligand to protein in the cell. Integrated heat data were analyzed using nonlinear regression fit with a one-site-binding model in the Origin-7™ software provided with the VP-ITC. Changes in the free energy and entropy can be calculated using the equation: ΔG° = −RTlnK = ΔH°−TΔS°. In this equation ΔG° is the change in Gibbs free energy, R the universal gas constant, T the temperature, and K the association constant. The change in enthalpy is denoted as ΔH°, and ΔS° is the change in entropy under standard conditions. The data shown in Table 2 were obtained from single titrations of each complex.
# Cleaved human CBG-WT [2] = molecular target: T1, Cleaved human CBG-WT (Homo sapiens, UniProt P08185, K148A); assay: as above; conditions: ITC, 25°C
# T1 construct: residues 11 to 383 of human CBG (Swiss-Prot entry P08185); GST (N, cleaved yes); made in house; host or cells: E. coli BL21 Star (DE3)
# T1 sequence (P08185 33-366 K148A): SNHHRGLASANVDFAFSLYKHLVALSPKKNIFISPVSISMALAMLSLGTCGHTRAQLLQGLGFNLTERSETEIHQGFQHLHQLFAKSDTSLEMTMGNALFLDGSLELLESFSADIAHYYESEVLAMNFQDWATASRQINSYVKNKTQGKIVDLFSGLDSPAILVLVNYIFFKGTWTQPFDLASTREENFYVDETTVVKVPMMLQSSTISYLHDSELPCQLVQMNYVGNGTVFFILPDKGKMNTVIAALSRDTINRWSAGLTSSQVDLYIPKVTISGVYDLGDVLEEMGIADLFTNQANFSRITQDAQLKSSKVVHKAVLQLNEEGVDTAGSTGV
# T1 sequence (P08185 367-405): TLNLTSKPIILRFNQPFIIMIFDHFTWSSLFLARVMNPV
# Method: as §1
# Rat CBG-WT = molecular target: T2, Rat CBG-WT (Rattus norvegicus, UniProt P31211); assay: Isothermal titration calorimetry, steroid titrated to rat CBG-WT; conditions: ITC, 25°C
# T2 construct: residues 5 to 374 of rat CBG (P31211); GST (N, cleaved yes); made in house; host or cells: E. coli BL21 Star (DE3)
# T2 sequence (P31211 27-396): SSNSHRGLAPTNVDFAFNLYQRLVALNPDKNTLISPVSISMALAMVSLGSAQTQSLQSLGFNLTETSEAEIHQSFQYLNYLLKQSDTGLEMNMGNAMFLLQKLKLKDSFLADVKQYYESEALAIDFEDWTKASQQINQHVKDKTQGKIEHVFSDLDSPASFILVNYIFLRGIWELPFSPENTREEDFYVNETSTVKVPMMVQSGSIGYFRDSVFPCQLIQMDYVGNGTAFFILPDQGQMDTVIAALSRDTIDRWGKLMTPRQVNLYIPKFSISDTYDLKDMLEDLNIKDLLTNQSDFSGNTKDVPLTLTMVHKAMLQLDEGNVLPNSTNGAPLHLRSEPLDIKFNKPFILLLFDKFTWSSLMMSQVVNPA
# Method: The coding sequences of residues 11 to 383 of human CBG (Swiss-Prot entry P08185) and residues 5 to 374 of rat CBG (P31211) were cloned into a pGEX-2T vector (GE Healthcare, Uppsala), yielding N-terminal glutathione-S-transferase (GST) fusion proteins. Mutations were introduced using a two-stage PCR procedure based on the QuikChange (Stratagene, Santa Clara) site-directed mutagenesis protocol. All experiments with human CBG were conducted with a mutant in which surface residue Lys126 was replaced by alanine in order to facilitate crystallization. Wild-type rat CBG (rat CBG-WT) and rat CBG mutants CBG-RCL1, CBG-RCL2 and CBG-RCL3 were produced to probe the function of the RCL residues in rat CBG. All gene constructs were confirmed by DNA sequencing prior to protein production.
# The GST-tagged human and rat CBG variants were produced in E. coli BL21 Star™ (DE3) cells (Invitrogen, Carlsbad) using the ZYM-5052 auto-inducing medium. For each variant, 10 L of ZYM-5052 medium containing 100 µg/mL ampicillin were inoculated with an overnight culture of a single clone. The flasks were incubated at 37°C until the optical density at 600 nm reached 0.3. The temperature was then lowered to 20°C, and the cells were allowed to grow for an additional 20 h. The pellet was resuspended in PBS buffer (pH 7.4) containing 5 mM EDTA after cell harvesting (4 mL of buffer per gram of pellet).
# as §1, with “The” for “Cleavage of the RCL in human and rat CBG mutants was accomplished with 100 mU human neutrophil elastase (Sigma-Aldrich) per mg purified CBG at 30°C and monitored by SDS-PAGE. The cleavage reaction was stopped with AEBSF. The”
structure (smiles),measurement,setting,value
C[C@]12CCC(=O)C=C1CC[C@@H]1[C@@H]2[C@@H](O)C[C@@]2(C)[C@H]1CC[C@]2(O)C(=O)CO [Hydrocortisone],reduction in binding affinity upon RCL cleavage,Cleaved human CBG-WT [1],ten-fold
same,TΔS°,Cleaved human CBG-WT [2]; cleaved human CBG-WT,-18.7 kcal/mol
same,ΔG°,Cleaved human CBG-WT [2]; cleaved human CBG-WT,-8.68 kcal/mol
same,ΔH°,Cleaved human CBG-WT [2]; cleaved human CBG-WT,-27.41 kcal/mol
same,Kd,"Cleaved human CBG-WT [2]; single titration, elastase-cleaved human CBG-WT",442 ± 10 nM
same,TΔS°,Rat CBG-WT; rat CBG-WT,-20.3 kcal/mol
same,ΔG°,Rat CBG-WT; rat CBG-WT,-9.44 kcal/mol
same,ΔH°,Rat CBG-WT; rat CBG-WT,-29.78 kcal/mol
same,Kd,"Rat CBG-WT; single titration, uncleaved rat CBG-WT",122 ± 6 nM
